The values below come from publication PMC10303271, “Synthesis and Receptor Binding Studies of α5 GABAAR Selective Novel Imidazodiazepines Targeted for Psychiatric and Cognitive Disorders” (Molecules, 2023).

The structures appear in SMILES notation.

One data set addresses T1, D5 (Homo sapiens, UniProt P21918).
T1 construct: purchased NIMH Psychoactive Drug Screening Program (PDSP)
The data set can be described thus: PDSP primary binding D5. The conditions noted are these: 1.5 h; primary binding, 10,000 nM; last figure of the line = mean of the 4 before it; read-out: D5, PDSP raw data, mean. The procedure: (§1) To determine if any off-target receptor-binding effects are present, all the novel ligands were sent to the National Institute of Mental Health (NIMH), Psychoactive Drug Screening Program (PDSP). The ligands were screened over a panel of 47 receptors, ion channels, and transporters to determine any other possible interactions with […]. The hERG-binding was also determined. […] No binding of the test compounds to calcium channels was observed. […] It is necessary to screen the compounds for hERG-binding during the early process of drug discovery. The unintentional binding of many drugs to hERG can cause blockade of hERG K+ channels in the heart, which can cause many side effects including cardiac arrhythmias and sudden death. […] All of the α5 imidazodiazepines were tested for hERG-binding.
(§2) The NIMH PDSP assay protocol book [https://kidbdev.med.unc.edu/databases/PDSP%20Protocols%20II%202013-03-28.pdf accessed on 23 April 2023]. describes the protocols for primary and secondary radio-ligand binding assays. These assays were carried out in a final volume of 125 µL per well in the appropriate binding buffer.
(§3) The binding of a ligand to a receptor, ion channel, or transporter was determined in the […] of 10 µM of the appropriate reference compound. […] Plates were incubated in the dark for 90 min at rt, and the reactions were stopped by vacuum filtration onto 0.3% polyethyleneimine (PEI) soaked 96-well filter mats using a 96-well Filtermateharvester. This was followed by three washes with cold PBS buffer. Radioactivity was then counted on a Microbeta counter. Nonlinear regression was used to analyze the data with N = 6 replicates.

Another data set deals with T2, DAT (Homo sapiens, UniProt Q01959).
T2 construct: purchased NIMH Psychoactive Drug Screening Program (PDSP)
T2 sequence (Q01959 whole entry): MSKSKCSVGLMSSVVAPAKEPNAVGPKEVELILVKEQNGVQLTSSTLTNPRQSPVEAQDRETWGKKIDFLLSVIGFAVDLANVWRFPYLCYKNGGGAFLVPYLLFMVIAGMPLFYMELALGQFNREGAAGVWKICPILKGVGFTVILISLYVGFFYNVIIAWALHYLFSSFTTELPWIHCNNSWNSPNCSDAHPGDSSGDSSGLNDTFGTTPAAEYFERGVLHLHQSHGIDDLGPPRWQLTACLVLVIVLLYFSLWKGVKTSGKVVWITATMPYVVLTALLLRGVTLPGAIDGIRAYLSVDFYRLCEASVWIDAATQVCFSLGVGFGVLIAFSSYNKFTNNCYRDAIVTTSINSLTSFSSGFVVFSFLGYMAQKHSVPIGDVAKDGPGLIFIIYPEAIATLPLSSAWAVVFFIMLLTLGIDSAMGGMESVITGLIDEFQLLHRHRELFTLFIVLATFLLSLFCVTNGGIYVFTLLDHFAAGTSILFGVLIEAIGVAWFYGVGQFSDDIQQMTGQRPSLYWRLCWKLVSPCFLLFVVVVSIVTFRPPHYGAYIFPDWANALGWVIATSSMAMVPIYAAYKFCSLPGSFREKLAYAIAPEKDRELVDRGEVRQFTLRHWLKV
Put plainly: PDSP primary binding DAT. Particulars: 1.5 h, primary binding, 10,000 nM; last figure of the line = mean of the 4 before it; some tables list DAT twice; read-out: DAT, PDSP raw data, mean. The procedure:
as §1, §2, §3

The subject of a further data set is GABAA. Put plainly: PDSP primary binding GABAA. Particulars: primary binding, 10,000 nM; last figure of the line = mean of the 4 before it; some tables list it twice. The procedure:
as §1, §2, §3

The target in a further data set is T3, SERT (Homo sapiens, UniProt P31645).
T3 construct: purchased NIMH Psychoactive Drug Screening Program (PDSP)
T3 sequence (P31645 whole entry): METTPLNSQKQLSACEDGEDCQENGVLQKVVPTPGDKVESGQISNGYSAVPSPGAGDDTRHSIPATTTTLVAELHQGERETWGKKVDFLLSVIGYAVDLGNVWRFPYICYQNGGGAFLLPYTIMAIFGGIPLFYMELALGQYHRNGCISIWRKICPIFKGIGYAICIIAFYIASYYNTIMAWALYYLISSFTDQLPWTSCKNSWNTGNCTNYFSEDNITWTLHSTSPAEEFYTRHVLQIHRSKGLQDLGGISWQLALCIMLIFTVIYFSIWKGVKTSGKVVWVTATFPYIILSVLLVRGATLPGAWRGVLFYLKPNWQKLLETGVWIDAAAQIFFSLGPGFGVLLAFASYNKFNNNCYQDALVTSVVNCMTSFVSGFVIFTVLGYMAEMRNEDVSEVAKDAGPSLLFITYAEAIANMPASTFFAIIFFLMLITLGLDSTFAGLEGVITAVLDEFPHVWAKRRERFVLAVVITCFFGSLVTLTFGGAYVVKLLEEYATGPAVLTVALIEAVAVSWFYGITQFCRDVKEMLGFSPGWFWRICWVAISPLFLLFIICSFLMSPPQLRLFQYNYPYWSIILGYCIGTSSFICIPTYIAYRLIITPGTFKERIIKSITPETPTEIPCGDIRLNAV
Put plainly: PDSP primary binding SERT. Particulars: primary binding, 10,000 nM; last figure of the line = mean of the 4 before it; some tables list SERT twice; read-out: SERT, PDSP raw data, mean. The procedure:
as §1, §2, §3

In a further data set the target is T4, OT (Homo sapiens, UniProt P30559).
T4 construct: purchased NIMH Psychoactive Drug Screening Program (PDSP)
T4 sequence (P30559 1-389): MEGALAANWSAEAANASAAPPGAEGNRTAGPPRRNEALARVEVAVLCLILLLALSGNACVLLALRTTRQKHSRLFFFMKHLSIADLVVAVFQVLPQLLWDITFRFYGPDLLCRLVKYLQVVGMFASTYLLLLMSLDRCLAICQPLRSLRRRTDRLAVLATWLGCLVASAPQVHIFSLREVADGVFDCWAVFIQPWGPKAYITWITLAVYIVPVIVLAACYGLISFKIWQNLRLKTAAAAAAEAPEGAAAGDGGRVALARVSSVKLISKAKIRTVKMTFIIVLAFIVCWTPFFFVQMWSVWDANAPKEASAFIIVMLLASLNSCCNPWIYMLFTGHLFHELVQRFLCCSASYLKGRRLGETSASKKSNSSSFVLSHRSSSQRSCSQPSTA
The data set can be described thus: PDSP primary binding OT (Oxytocin). Particulars: primary binding, 10,000 nM; last figure of the line = mean of the 4 before it; some tables list it twice; read-out: OT (also Oxytocin), PDSP raw data, mean. On the procedure:
as §1, §2, §3

In a further data set the target is T5, hERG K+ channel (Homo sapiens, UniProt Q12809).
T5 construct: purchased NIMH Psychoactive Drug Screening Program (PDSP)
T5 sequence (Q12809 whole entry): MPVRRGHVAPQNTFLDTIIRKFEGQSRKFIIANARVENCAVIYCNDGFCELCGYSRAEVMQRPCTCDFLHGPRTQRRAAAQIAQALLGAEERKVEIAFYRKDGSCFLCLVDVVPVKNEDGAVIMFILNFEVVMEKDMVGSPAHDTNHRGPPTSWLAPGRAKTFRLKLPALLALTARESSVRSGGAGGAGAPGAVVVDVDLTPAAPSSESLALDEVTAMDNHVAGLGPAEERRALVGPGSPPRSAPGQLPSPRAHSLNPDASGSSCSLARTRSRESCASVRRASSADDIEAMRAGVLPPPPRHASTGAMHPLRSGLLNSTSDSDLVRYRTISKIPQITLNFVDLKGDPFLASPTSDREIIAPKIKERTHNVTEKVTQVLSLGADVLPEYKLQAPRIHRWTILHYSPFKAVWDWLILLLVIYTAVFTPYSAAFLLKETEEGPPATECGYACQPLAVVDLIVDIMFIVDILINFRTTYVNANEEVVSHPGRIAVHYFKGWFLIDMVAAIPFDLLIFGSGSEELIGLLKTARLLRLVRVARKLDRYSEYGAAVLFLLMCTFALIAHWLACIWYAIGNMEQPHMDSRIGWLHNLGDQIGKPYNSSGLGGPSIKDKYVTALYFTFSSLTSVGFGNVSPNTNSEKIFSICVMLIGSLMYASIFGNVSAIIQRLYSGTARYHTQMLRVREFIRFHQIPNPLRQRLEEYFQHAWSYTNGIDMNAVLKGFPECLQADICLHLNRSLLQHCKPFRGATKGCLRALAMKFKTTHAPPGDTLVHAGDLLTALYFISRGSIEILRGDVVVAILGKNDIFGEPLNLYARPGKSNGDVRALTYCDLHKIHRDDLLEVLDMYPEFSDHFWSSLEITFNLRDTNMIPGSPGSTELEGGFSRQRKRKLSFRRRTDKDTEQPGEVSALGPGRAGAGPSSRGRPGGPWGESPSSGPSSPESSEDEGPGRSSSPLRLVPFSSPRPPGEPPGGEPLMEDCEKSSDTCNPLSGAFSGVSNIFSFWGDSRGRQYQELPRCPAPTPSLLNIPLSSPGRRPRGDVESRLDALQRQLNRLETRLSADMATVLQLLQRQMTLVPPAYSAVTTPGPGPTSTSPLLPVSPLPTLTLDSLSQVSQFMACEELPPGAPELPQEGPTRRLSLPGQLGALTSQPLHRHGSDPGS
Put plainly: PDSP radioligand binding at hERG. The conditions noted are these: human; at 10,000 nM; N = 5; read-out: Binding Affinity at hERG % Inhibition (Primary Binding). On the procedure: as §1, §2, §3
A general note: Block of hERG is tested as a sign of cardiac risk.

In another data set the target is T6, NOP (Homo sapiens, UniProt P41146).
T6 construct: purchased NIMH Psychoactive Drug Screening Program (PDSP)
T6 sequence (P41146 whole entry): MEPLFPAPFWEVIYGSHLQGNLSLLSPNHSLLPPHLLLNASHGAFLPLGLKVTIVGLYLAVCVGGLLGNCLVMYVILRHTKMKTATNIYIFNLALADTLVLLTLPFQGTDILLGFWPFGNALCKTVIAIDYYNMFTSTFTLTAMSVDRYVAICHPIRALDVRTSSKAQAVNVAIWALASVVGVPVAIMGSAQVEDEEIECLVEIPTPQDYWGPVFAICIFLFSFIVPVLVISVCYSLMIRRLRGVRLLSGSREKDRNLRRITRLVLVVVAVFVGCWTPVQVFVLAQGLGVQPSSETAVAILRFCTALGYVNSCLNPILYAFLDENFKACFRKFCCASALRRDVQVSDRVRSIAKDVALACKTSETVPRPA
Put plainly: PDSP primary binding NOP. Particulars: primary binding, 10,000 nM; last figure of the line = mean of the 4 before it. On the procedure: as §1, §2, §3

For the next data set, the target named is T7, AT2 (Homo sapiens, UniProt P50052).
T7 construct: purchased NIMH Psychoactive Drug Screening Program (PDSP)
T7 sequence (P50052 whole entry): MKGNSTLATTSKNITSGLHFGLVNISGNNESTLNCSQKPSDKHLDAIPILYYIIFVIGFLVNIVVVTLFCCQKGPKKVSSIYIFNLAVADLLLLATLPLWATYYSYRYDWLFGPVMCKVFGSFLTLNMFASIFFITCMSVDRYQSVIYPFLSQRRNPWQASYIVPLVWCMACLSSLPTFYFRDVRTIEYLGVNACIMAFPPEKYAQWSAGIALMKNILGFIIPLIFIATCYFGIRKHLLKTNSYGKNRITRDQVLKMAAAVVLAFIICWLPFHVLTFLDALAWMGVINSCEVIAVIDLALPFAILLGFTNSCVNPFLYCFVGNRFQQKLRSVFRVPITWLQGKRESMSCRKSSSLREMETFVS
Put plainly: PDSP primary binding AT2. The conditions noted are these: primary binding, 10,000 nM; last figure of the line = mean of the 4 before it. The procedure:
as §1
The NIMH PDSP assay protocol book [https://kidbdev.med.unc.edu/databases/PDSP%20Protocols%20II%202013-03-28.pdf accessed on 23 April 2023]. describes the protocols for primary and secondary radio-ligand binding assays. […]
The binding of a ligand to a receptor, ion channel, or transporter was determined in the […] of 10 µM of the appropriate reference compound. Nonspecific binding was also determined in the absence and presence of 10 µM of the appropriate reference compound. […] Radioactivity was then counted on a Microbeta counter. […]

T1 sequence (P21918 whole entry): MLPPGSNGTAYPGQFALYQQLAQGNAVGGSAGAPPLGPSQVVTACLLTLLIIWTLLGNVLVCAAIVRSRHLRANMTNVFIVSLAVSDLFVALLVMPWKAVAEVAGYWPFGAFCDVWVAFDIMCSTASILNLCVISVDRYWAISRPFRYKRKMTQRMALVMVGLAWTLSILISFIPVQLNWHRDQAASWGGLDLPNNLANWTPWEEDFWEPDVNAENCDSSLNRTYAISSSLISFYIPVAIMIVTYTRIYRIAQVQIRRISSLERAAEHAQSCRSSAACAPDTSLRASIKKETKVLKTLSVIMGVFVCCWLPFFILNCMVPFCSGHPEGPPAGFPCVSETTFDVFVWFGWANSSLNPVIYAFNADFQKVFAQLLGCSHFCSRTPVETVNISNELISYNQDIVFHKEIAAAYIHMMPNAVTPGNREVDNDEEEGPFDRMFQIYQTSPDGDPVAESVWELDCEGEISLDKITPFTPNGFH

As to `CCc1noc(-c2ncn3c2[C@@H](C)N=C(c2ccccc2F)c2cc(Cl)ccc2-3)n1` [Compound 36, (R)-5-(8-Chloro-6-(2′-fluorophenyl)-4-methyl-4H-benzo[f]imidazo[1,5-a][1,4]diazepin-3-yl)-3-ethyl-1,2,4-oxadiazole], the inhibition at 10 µM at D5 is 3.16%; on DAT, 11%; on SERT it was 3.09%; at OT, 14.7%. Besides, in the data set on GABAA, the “GABAA, PDSP raw data, mean” value was 13.12%.
For `C[C@H]1N=C(c2ccccc2F)c2cc(-c3ccccc3)ccc2-n2cnc(C(=O)N(C)C)c21` [Compound 5, (R)-6-(2′-Fluorophenyl)-N,N,4-trimethyl-8-phenyl-4H-benzo[f]imidazo[1,5-a][1,4]diazepine-3-carboxamide], on hERG K+ channel, the inhibition at 90 min, 10000 nM was -0.48 ± 4.52%. Also, the figures for the inhibition at 10 µM at D5, at DAT and on SERT were 1.22%, 29.7% and -9.27%, respectively. The “GABAA, PDSP raw data, mean” value with GABAA was -4.01%.
Turning to `C[C@H]1N=C(c2ccccc2F)c2cc(Cl)ccc2-n2cnc(-c3nc(C4CC4)no3)c21` [Compound 38, (R)-5-(8-Chloro-6-(2′-fluorophenyl)-4-methyl-4H-benzo[f]imidazo[1,5-a][1,4]diazepin-3-yl)-3-cyclopropyl-1,2,4-oxadiazole], the inhibition at 90 min, 10000 nM at hERG K+ channel is 1.86 ± 25.6%. Besides, the inhibition at 10 µM turned out to be 14.1% on D5, 40% at DAT and 13.1% at SERT. The “NOP, PDSP raw data, mean” value at NOP is -17%. For the same compound, the “AT2, PDSP raw data, mean” value at AT2 is listed as 24.14%.
For the compound `C#Cc1ccc2c(c1)C(c1ccccc1F)=N[C@H](C)c1c(C(=S)N(C)C)ncn1-2` [Compound 33, (R)-8-Ethynyl-6-(2′-fluorophenyl)-N,N,4-trimethyl-4H-benzo[f]imidazo[1,5-a][1,4]diazepine-3-carbothioamide], at hERG K+ channel, the inhibition at 90 min, 10000 nM is -4.4 ± 4.52%. Moreover, the inhibition at 10 µM at D5 was 1.22%; at DAT it was 29.7%; at SERT, -9.27%. Also, in the data set on GABAA, the “GABAA, PDSP raw data, mean” value is reported as -4.01%.
For the compound `C#Cc1ccc2c(c1)C(c1ccccc1Cl)=N[C@H](C)c1c(C(=O)NC)ncn1-2` [Compound 21, (R)-6-(2′-Chlorophenyl)-8-ethynyl-N,4-dimethyl-4H-benzo[f]imidazo[1,5-a][1,4]diazepine-3-carboxamide], the inhibition at 90 min, 10000 nM on hERG K+ channel is -5.73 ± 11.1%. Moreover, the inhibition at 10 µM at D5 was 12.2%; at SERT, 9.24%; at OT, -0.63%. For the same compound, in the data set on GABAA, the “GABAA, PDSP raw data, mean” value amounted to 12.76%. For the same compound, on NOP, the “NOP, PDSP raw data, mean” value is listed as -0.1%.
For `CCc1noc(-c2ncn3c2[C@@H](C)N=C(c2ccccc2F)c2cc(C4CC4)ccc2-3)n1` [Compound 46, (R)-5-(8-Cyclopropyl-6-(2′-fluorophenyl)-4-methyl-4H-benzo[f]imidazo[1,5-a][1,4]diazepin-3-yl)-3-ethyl-1,2,4-oxadiazole], at hERG K+ channel, the inhibition at 90 min, 10000 nM came to 4.34 ± 3.92%. The inhibition at 10 µM is 51.2% at D5, 22% at DAT, -3.28% at SERT and 11.4% at OT. Also, the “GABAA, PDSP raw data, mean” value in the data set with GABAA worked out at 19.52%. For the same compound, the “NOP, PDSP raw data, mean” value on NOP was 7.5%.
Regarding `CCc1noc(-c2ncn3c2CN=C(c2ccccc2F)c2cc(C4CC4)ccc2-3)n1` [Compound 44, 5-(8-Cyclopropyl-6-(2′-fluorophenyl)-4H-benzo[f]imidazo[1,5-a][1,4]diazepin-3-yl)-3-ethyl-1,2,4-oxadiazole], the inhibition at 90 min, 10000 nM at hERG K+ channel was found to be 33.2 ± 12.6%. The inhibition at 10 µM on D5 was 9.06%; on DAT, 37.4%; at SERT it was 7.2%; on OT, 15.4%. The “GABAA, PDSP raw data, mean” value with GABAA was 11.92%.
With `C#Cc1ccc2c(c1)C(c1ccccc1Cl)=N[C@H](C)c1c(C(=O)N(C)CC)ncn1-2` [Compound 29], at hERG K+ channel, the inhibition at 90 min, 10000 nM is -1.55 ± 10.1%. In addition, the figures for the inhibition at 10 µM on D5, at SERT and on OT were -17.2%, 6.07% and 41.8%, respectively. Besides, the “GABAA, PDSP raw data, mean” value with GABAA was found to be 25.77%.
As for `CCc1noc(-c2ncn3c2[C@@H](C)N=C(c2ccccc2F)c2cc(-c4ccccc4)ccc2-3)n1` [Compound 35, (R)-3-Ethyl-5-(6-(2′-fluorophenyl)-4-methyl-8-phenyl-4H-benzo[f]imidazo[1,5-a][1,4]diazepin-3-yl)-1,2,4-oxadiazole], the inhibition at 90 min, 10000 nM at hERG K+ channel was 37.3 ± 5.97%. For the same compound, the inhibition at 10 µM on D5 was found to be 23.6%; on DAT it was 49.4%; at SERT it was 17.2%; on OT, 6.27%. Moreover, the “GABAA, PDSP raw data, mean” value in the data set with GABAA stood at 16.02%.
With `C#Cc1ccc2c(c1)C(c1ccccn1)=N[C@@H](C)c1c(C(=O)N(C)C)ncn1-2` [Compound 31, (S)-8-Ethynyl-N,N,4-trimethyl-6-(pyridin-2′-yl)-4H-benzo[f]imidazo[1,5-a][1,4]diazepine-3-carboxamide], the inhibition at 90 min, 10000 nM at hERG K+ channel was found to be 0.95 ± 2.21%. Also, the inhibition at 10 µM at D5 is -11.1%; on DAT, 15.5%; at SERT, 4.04%; on OT it was 23.7%. In addition, in the data set on GABAA, the “GABAA, PDSP raw data, mean” value amounted to 9.39%. For the same compound, the “NOP, PDSP raw data, mean” value at NOP is -14.49%.
Turning to `CC(C)c1noc(-c2ncn3c2[C@@H](C)N=C(c2ccccc2F)c2cc(Cl)ccc2-3)n1` [Compound 37, (R)-5-(8-Chloro-6-(2′-fluorophenyl)-4-methyl-4H-benzo[f]imidazo[1,5-a][1,4]diazepin-3-yl)-3-isopropyl-1,2,4-oxadiazole], the inhibition at 90 min, 10000 nM at hERG K+ channel amounted to 4.21 ± 10.8%. The inhibition at 10 µM on D5 came out at 17.1%; on DAT, 37.5%; at OT, 10.5%. In addition, on NOP, the “NOP, PDSP raw data, mean” value is reported as -10.12%. The “AT2, PDSP raw data, mean” value on AT2 is on record as 12.03%.
`C#Cc1ccc2c(c1)C(c1ccccn1)=N[C@@H](C)c1c(C(=O)NC)ncn1-2` [Compound 23, (S)-8-Ethynyl-N,4-dimethyl-6-(pyridin-2′-yl)-4H-benzo[f]imidazo[1,5-a][1,4]diazepine-3-carboxamide]: the inhibition at 90 min, 10000 nM at hERG K+ channel is -4.24 ± 3.47%. Besides, the inhibition at 10 µM is -16.1% at D5, -7.1% on SERT and 47.4% at OT. For the same compound, in the data set with GABAA, the “GABAA, PDSP raw data, mean” value was 23.24%.
